According to patent publication US12139520B2 (priority 2020, dated 2024):
Numbered stars: 1 amine (or outer) side, 2 acyl side, 3 side chain; on linkers, the order of the positions; unused ones are H or OH. Bridge positions count the residues as written; N and C are the ends. Peptide text beside a SMILES is read from it. * marks the point of attachment. C20 diacid = O=C(O)CCCCCCCCCCCCCCCCCCC(=O)*; γGlu = O=C(O)[C@H](CCC(=O)[*:2])N[*:1]

The compounds below were run against T1, hAMY3 receptor (Homo sapiens, UniProt O60896+P30988) (assay: cAMP assay for in vitro receptor activation, hAMY3-R). Details: cAMP assay, hAMY3 receptor; read-out: hAMY3R EC50.
T1 sequence (P30988 25-474): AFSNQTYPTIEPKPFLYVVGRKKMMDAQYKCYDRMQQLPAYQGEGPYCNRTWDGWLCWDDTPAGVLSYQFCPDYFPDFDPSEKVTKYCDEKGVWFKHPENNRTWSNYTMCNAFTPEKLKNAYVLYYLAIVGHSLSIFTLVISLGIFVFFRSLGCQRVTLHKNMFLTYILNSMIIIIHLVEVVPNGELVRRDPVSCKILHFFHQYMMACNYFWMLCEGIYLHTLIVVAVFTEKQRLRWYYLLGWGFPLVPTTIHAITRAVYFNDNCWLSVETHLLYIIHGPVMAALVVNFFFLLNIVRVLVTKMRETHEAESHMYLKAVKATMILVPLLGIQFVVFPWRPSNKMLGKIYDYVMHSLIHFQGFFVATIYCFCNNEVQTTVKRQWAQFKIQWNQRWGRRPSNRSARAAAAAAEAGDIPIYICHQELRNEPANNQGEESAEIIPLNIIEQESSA
T1 sequence (O60896 24-148 partner): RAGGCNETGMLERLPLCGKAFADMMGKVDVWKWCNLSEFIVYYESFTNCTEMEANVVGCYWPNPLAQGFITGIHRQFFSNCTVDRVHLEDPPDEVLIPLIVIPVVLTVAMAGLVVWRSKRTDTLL
Format: cell-based
Method in brief: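 Read-out is TR-FRET cAMP signal, recorded one hour after reagent addition, following 30 min room-temperature stimulation of stable hAMY3 cells with graded compound doses in casein/IBMX (0.5 mM) buffer.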
For `CC[C@H](C)[C@H](NC(=O)[C@H](CCC(N)=O)NC(=O)[C@H](Cc1c[nH]cn1)NC(=O)[C@H](C)NC(=O)[C@H](CC(C)C)NC(=O)[C@H](CCCNC(=N)N)NC(=O)[C@H](CCC(N)=O)NC(=O)[C@@H](NC(=O)[C@@H](NC(=O)[C@@H]1CSSC[C@H](NC(=O)CNC(=O)CC[C@H](NC(=O)CCCCCCCCCCCCCCCCCCC(=O)O)C(=O)O)C(=O)N[C@@H](CCCNC(=N)N)C(=O)N[C@@H](Cc2ccccc2)C(=O)N[C@@H](C)C(=O)N[C@@H]([C@@H](C)O)C(=O)N1)[C@@H](C)O)C(C)C)C(=O)N[C@@H](Cc1ccc(O)cc1)C(=O)N[C@@H](CCC(N)=O)C(=O)N[C@@H](Cc1ccccc1)C(=O)N[C@H](C(=O)N[C@@H](CC(=O)O)C(=O)N[C@@H](CCCCN)C(=O)N[C@@H](CC(=O)O)C(=O)N[C@@H](CCCCN)C(=O)N[C@@H](CC(=O)O)C(=O)N[C@@H](CC(N)=O)C(=O)N[C@H](C(=O)N[C@@H](C)C(=O)N1CCC[C@H]1C(=O)N[C@@H](CCCNC(=N)N)C(=O)N[C@H](C(=O)N[C@@H](CCCCN)C(=O)N[C@H](C(=O)NCC(=O)N1CCC[C@H]1C(=O)N[C@@H](CCC(N)=O)C(=O)NCC(=O)N[C@@H](Cc1ccc(O)cc1)C(N)=O)C(C)C)[C@@H](C)O)C(C)C)[C@@H](C)O` [compound 380] ({C20 diacid-γGlu}-GCRFATCTVQRLAHQIYQFTDKDKDNVAPRTKVGPQGY-NH2; disulfide 2-7), the EC50 was 31 pM. `CC[C@H](C)[C@H](NC(=O)[C@H](CC(N)=O)NC(=O)[C@@H](NC(=O)[C@H](CCCNC(=N)N)NC(=O)[C@@H]1CCCN1C(=O)[C@H](C)NC(=O)[C@@H](NC(=O)[C@H](CC(N)=O)NC(=O)[C@H](CC(=O)O)NC(=O)[C@H](CCCCN)NC(=O)[C@H](CC(=O)O)NC(=O)[C@H](CCCCN)NC(=O)[C@H](CC(=O)O)NC(=O)[C@@H](NC(=O)[C@H](Cc1ccccc1)NC(=O)[C@H](CCC(N)=O)NC(=O)[C@H](Cc1ccc(O)cc1)NC(=O)[C@@H](NC(=O)[C@H](CCC(N)=O)NC(=O)[C@H](Cc1c[nH]cn1)NC(=O)[C@H](C)NC(=O)[C@H](CC(C)C)NC(=O)[C@H](CCCNC(=N)N)NC(=O)[C@H](CCC(N)=O)NC(=O)[C@@H](NC(=O)[C@@H](NC(=O)[C@@H]1CSSC[C@H](NC(=O)CN)C(=O)N[C@@H](CCCNC(=N)N)C(=O)N[C@@H](Cc2ccccc2)C(=O)NCC(=O)N[C@@H]([C@@H](C)O)C(=O)N1)[C@@H](C)O)C(C)C)[C@@H](C)CC)[C@@H](C)O)C(C)C)[C@@H](C)O)C(=O)NCC(=O)N1CCC[C@H]1C(=O)N[C@@H](CC(N)=O)C(=O)NCC(=O)N[C@@H](Cc1ccc(O)cc1)C(N)=O` [compound 381] (H-GCRFGTCTVQRLAHQIYQFTDKDKDNVAPRTNIGPNGY-NH2; disulfide 2-7; N-terminus assumed) gave an EC50 of 32 pM. Compound `CC[C@H](C)[C@H](NC(=O)[C@H](CC(N)=O)NC(=O)[C@H](CO)NC(=O)[C@H](CCCNC(=N)N)NC(=O)[C@@H]1CCCN1C(=O)[C@H](C)NC(=O)[C@@H](NC(=O)[C@H](CC(N)=O)NC(=O)[C@H](CC(=O)O)NC(=O)[C@H](CCCCN)NC(=O)[C@H](CC(=O)O)NC(=O)[C@H](CCCCN)NC(=O)[C@H](CC(=O)O)NC(=O)[C@@H](NC(=O)[C@H](Cc1ccccc1)NC(=O)[C@H](CCC(N)=O)NC(=O)[C@H](Cc1ccc(O)cc1)NC(=O)[C@@H](NC(=O)[C@H](CCC(N)=O)NC(=O)[C@H](Cc1c[nH]cn1)NC(=O)[C@H](C)NC(=O)[C@H](CC(C)C)NC(=O)[C@H](CCCNC(=N)N)NC(=O)[C@H](CCC(N)=O)NC(=O)[C@@H](NC(=O)[C@@H](NC(=O)[C@@H]1CSSC[C@H](NC(=O)CN)C(=O)N[C@@H](CCCNC(=N)N)C(=O)N[C@@H](Cc2ccccc2)C(=O)NCC(=O)N[C@@H]([C@@H](C)O)C(=O)N1)[C@@H](C)O)C(C)C)[C@@H](C)CC)[C@@H](C)O)C(C)C)C(=O)NCC(=O)N1CCC[C@H]1C(=O)N[C@@H](CCC(N)=O)C(=O)NCC(=O)N[C@@H](Cc1ccc(O)cc1)C(N)=O` [compound 382] (H-GCRFGTCTVQRLAHQIYQFTDKDKDNVAPRSNIGPQGY-NH2; disulfide 2-7) has an EC50 of 34 pM. Compound `CC[C@H](C)[C@H](NC(=O)[C@H](CCC(N)=O)NC(=O)[C@H](Cc1c[nH]cn1)NC(=O)[C@H](C)NC(=O)[C@H](CC(C)C)NC(=O)[C@H](CCCNC(=N)N)NC(=O)[C@H](CCC(N)=O)NC(=O)[C@@H](NC(=O)[C@@H](NC(=O)[C@@H]1CSSC[C@H](NC(=O)CN)C(=O)N[C@@H](CCCNC(=N)N)C(=O)N[C@@H](Cc2ccccc2)C(=O)NCC(=O)N[C@@H]([C@@H](C)O)C(=O)N1)[C@@H](C)O)C(C)C)C(=O)N[C@@H](Cc1ccc(O)cc1)C(=O)N[C@@H](CCC(N)=O)C(=O)N[C@@H](Cc1ccccc1)C(=O)N[C@H](C(=O)N[C@@H](CC(=O)O)C(=O)N[C@@H](CCCCN)C(=O)N[C@@H](CC(=O)O)C(=O)N[C@@H](CCCCN)C(=O)N[C@@H](CC(=O)O)C(=O)N[C@@H](CC(N)=O)C(=O)N[C@H](C(=O)N[C@@H](C)C(=O)N1CCC[C@H]1C(=O)N[C@@H](CCCNC(=N)N)C(=O)N[C@@H](CO)C(=O)N[C@@H](CCCCN)C(=O)N[C@H](C(=O)N[C@@H](CO)C(=O)N1CCC[C@H]1C(=O)N[C@@H](CC(N)=O)C(=O)NCC(=O)N[C@@H](Cc1ccc(O)cc1)C(N)=O)C(C)C)C(C)C)[C@@H](C)O` [compound 384] (H-GCRFGTCTVQRLAHQIYQFTDKDKDNVAPRSKVSPNGY-NH2; disulfide 2-7; N-terminus assumed) has an EC50 of 36 pM. Work on `CC(C)C[C@H](NC(=O)[C@H](CCCNC(=N)N)NC(=O)[C@H](CCC(N)=O)NC(=O)[C@@H](NC(=O)[C@@H](NC(=O)[C@@H]1CSSC[C@H](NC(=O)CNC(=O)CC[C@H](NC(=O)CCCCCCCCCCCCCCCCCCC(=O)O)C(=O)O)C(=O)N[C@@H](CCCNC(=N)N)C(=O)N[C@@H](Cc2ccccc2)C(=O)NCC(=O)N[C@@H]([C@@H](C)O)C(=O)N1)[C@@H](C)O)C(C)C)C(=O)N[C@@H](C)C(=O)N[C@@H](CC(N)=O)C(=O)N[C@@H](Cc1ccccc1)C(=O)N[C@@H](CC(C)C)C(=O)N[C@@H](Cc1ccc(O)cc1)C(=O)N[C@@H](CCC(N)=O)C(=O)N[C@@H](Cc1ccccc1)C(=O)N[C@H](C(=O)N[C@@H](CC(=O)O)C(=O)N[C@@H](CCCCN)C(=O)N[C@@H](CC(=O)O)C(=O)N[C@@H](CCCCN)C(=O)N[C@@H](CC(=O)O)C(=O)N[C@@H](CC(N)=O)C(=O)N[C@H](C(=O)N[C@@H](C)C(=O)N1CCC[C@H]1C(=O)N[C@@H](CCCNC(=N)N)C(=O)N[C@H](C(=O)N[C@@H](CC(N)=O)C(=O)N[C@H](C(=O)NCC(=O)N1CCC[C@H]1C(=O)N[C@@H](CCC(N)=O)C(=O)NCC(=O)N[C@@H](Cc1ccc(O)cc1)C(N)=O)C(C)C)[C@@H](C)O)C(C)C)[C@@H](C)O` [compound 386] ({C20 diacid-γGlu}-GCRFGTCTVQRLANFLYQFTDKDKDNVAPRTNVGPQGY-NH2; disulfide 2-7) yielded an EC50 of 39 pM.
